# Data taken from patent publication US20230150951A1, “2,5- OR 2,6-DISUBSTITUTED HYDROQUINONE DERIVATIVES WITH AT LEAST ONE CARBOXY, SULFO OR AMIDO GROUP USEFUL AS MEDICAMENTS” (OM PHARMA SA, priority 2020, published 2023).
# pIC50: −log10 of the molar value.
# Assays:
# [1] = tested on: STZ-induced diabetes model; assay: STZ-induced diabetic nephropathy, kidney disease and retinopathy model (28 days treatment)
# Protocol: A total of 70 female CD-1 mice aged 5-7 weeks weighing approximately 25-30 g were used for the study. These were purchased from Charles River, UK and had 7 days acclimatization period. Animals were housed in IVC cages (up to 5 per cage) with individual mice identified by tail mark. All animals were allowed free access to a standard certified commercial diet and sanitised water during the study. The holding room was maintained under standard conditions: 18-24° C., 55-70% humidity and a 12 h light/dark cycle.
# Mice were starved for 6 hours prior to injection. One week after completion of induction glucose levels were monitored and mice with levels less than 15 mml/L (280 mg/gL) were removed from the study as they had not developed the ideal severity of diabetes. Glucose levels were be monitored weekly and 5 weeks after STZ induction biochemical assessment of renal injury was carried out by measuring urine albumin and creatinine levels and confirming they were within the desired range. After successful completion of this stage animals were assigned to treatment groups.
# Treatment continued for 4 weeks (28 days) with weekly measurement of blood glucose and urine albumin/creatinine. The study schedule is detailed below looking at weekly (week 5 to 9) blood glucose levels, urine albumin creatinie ratios, and terminal (week 9) blood chemistry and cytokines, kidney histology and eye-retinal leakage.
# Urine Albumin: Creatinine (ALB: CRE): Urine was collected weekly and pooled for each treatment group.
# ELISAs: At the end of the treatment period blood was collected and processed to serum. Serum levels of CRP, TGF-β, IL-6 and TNF-α were quantified using commercially available ELISA kits, results are shown in Table 56.
# [2] = biological target: T1, FGF-1 (Homo sapiens, UniProt P05230); assay: FGF-1 induced sprouting of HUVEC, spheroid-based cellular angiogenesis assay; format: cell-based; details: FGF-1 25 ng/mL preincubated with compound, 24 h
# T1 construct: purchased Peprotech 100-17A
# T1 sequence (P05230 whole entry): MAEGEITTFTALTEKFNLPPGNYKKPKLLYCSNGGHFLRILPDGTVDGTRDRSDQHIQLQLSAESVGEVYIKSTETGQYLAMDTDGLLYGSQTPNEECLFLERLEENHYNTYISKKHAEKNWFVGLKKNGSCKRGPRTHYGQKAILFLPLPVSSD
# Protocol: (§1) Aim of this in vitro method is to assess compounds effects on FGF-2, FGF-1, or VEGF-A induced sprouting of human umbilical vein endothelial cells (HUVEC) in the spheroid-based cellular angiogenesis assay. Before adding the growth factors to the cells, they were preincubated with the compound. Sunitinib was tested as a control (without preincubation).
# (§2) IC50 values determined for the tested compounds are expressed in microM [μM] and the values for the inhibition of FGF-1, FGF2 and VEGF-A induced growth (sprouting) are listed after each compound in the examples after chemical characterization.
# (§3) Sprouting test was performed on the compounds dissolved in DMSO to reach 100-fold concentrated stock solutions and dissolved in culture media. Sunitinib as reference compound was provided by ProQinase GmbH. Growth factors were purchased from rhFGF-basic (FGF-2), Peprotech, New Jersey, USA, #100-18C, Lot #0415571; rhFGF-acidic (FGF-1), Peprotech, New Jersey, USA, #100-17A, Lot #031207; hVEGF-A165 (ProQinase GmbH, Freiburg, Germany; 05.02.2010) were used for stimulation of HUVEC cells growth.
# (§4) Test system: Endothelial cells from human umbilical vein (HUVEC) from pooled donors were stored frozen with 70% medium, 20% FCS, 10% DMSO at about 1×10^6 cells/ampoule. HUVEC cells, primary human umbilical vein endothelial cells (PromoCell, Heidelberg, Germany), were used after passage 3 to 4. Morphology of the cells are adherent, cobblestone-like growing as monolayer and were cultured in endothelial cell growth and basal medium (ECGM/ECBM, PromoCell). The subculture was split 1:3; every 3-5 days, seed out at ca. 1×10^4 cells/cm^2 and incubated at 37° C. with 5% CO2 with a doubling time 24-48 hours
# (§5) Dilution of test compounds: 100× concentrated solutions (concerning to the final assay concentrations) of each test compound were prepared with the appropriate solvent (in DMSO or in water). These 100×compound solutions were further diluted in endothelial cell growth and basal medium (ECBM) 1:7.5 to get a 13.33× concentrated solution. 75 μl of the 13.33×solution was subsequently mixed with 25 μl of 40× concentrated stimulus (solved in ECBM), resulting in a 10×concentrated stimulus/compound mixture. This mixture (100 μl) was incubated for 30 min at 37° C. and then added to 900 μl gel, containing the HUVEC spheroids (resulting in the final assay concentration).
# (§6) Test method: the experiments were pursued in modification of the originally published protocol (Korff and Augustin: J Cell Sci 112: 3249-58, 1999). In brief, spheroids were prepared as described (Korff and Augustin: J Cell Biol 143: 1341-52, 1998) by pipetting 400 HUVEC in a hanging drop on plastic dishes to allow overnight spheroid aggregation. 50 HUVEC spheroids were then seeded in 0.9 ml of a collagen gel and pipetted into individual wells of a 24 well plate to allow polymerization. The test compounds were preincubated with the growth factors (FGF-1, FGF-2 or VEGF-A final concentration 25 ng/mL) in a 10-fold concentrated solution and subsequently, 100 μl of this solution was added on top of the polymerized gel. All compounds were diluted in solvent (DMSO or water) as 100×stocks first (which means 100×stocks of each final assay concentration were prepared in solvent). Subsequently, these stocks were further diluted in medium (resulting in the 13.33×stocks of each final assay concentration) with final concentrations tested: 100, 50, 25, 12.5, 6.25, 3.13 and 1.56×10^−6 M). Plates were incubated at 37° C. for 24 hours and fixed by adding 4% PFA (Roth, Karlsruhe, Germany).
# (§7) Quantification of growth factor inhibition: sprouting intensity of HUVEC spheroids treated with the growth factor and the inhibitors were quantitated by an image analysis system determining the cumulative sprout length per spheroid (CSL).
# [3] = biological target: T2, VEGFR-2 (Homo sapiens, UniProt P35968); assay: VEGF-165 induced phosphorylation of VEGF-Receptor on HUVEC; format: cell-based; details: HUVEC preincubated 60 min, VEGF165 25 ng/mL 2 min; read-out: VEGFR-Phosphorylation inhibition IC50
# T2 construct: endogenous in cells; host or cells: primary HUVEC
# T2 sequence (P35968 20-1356): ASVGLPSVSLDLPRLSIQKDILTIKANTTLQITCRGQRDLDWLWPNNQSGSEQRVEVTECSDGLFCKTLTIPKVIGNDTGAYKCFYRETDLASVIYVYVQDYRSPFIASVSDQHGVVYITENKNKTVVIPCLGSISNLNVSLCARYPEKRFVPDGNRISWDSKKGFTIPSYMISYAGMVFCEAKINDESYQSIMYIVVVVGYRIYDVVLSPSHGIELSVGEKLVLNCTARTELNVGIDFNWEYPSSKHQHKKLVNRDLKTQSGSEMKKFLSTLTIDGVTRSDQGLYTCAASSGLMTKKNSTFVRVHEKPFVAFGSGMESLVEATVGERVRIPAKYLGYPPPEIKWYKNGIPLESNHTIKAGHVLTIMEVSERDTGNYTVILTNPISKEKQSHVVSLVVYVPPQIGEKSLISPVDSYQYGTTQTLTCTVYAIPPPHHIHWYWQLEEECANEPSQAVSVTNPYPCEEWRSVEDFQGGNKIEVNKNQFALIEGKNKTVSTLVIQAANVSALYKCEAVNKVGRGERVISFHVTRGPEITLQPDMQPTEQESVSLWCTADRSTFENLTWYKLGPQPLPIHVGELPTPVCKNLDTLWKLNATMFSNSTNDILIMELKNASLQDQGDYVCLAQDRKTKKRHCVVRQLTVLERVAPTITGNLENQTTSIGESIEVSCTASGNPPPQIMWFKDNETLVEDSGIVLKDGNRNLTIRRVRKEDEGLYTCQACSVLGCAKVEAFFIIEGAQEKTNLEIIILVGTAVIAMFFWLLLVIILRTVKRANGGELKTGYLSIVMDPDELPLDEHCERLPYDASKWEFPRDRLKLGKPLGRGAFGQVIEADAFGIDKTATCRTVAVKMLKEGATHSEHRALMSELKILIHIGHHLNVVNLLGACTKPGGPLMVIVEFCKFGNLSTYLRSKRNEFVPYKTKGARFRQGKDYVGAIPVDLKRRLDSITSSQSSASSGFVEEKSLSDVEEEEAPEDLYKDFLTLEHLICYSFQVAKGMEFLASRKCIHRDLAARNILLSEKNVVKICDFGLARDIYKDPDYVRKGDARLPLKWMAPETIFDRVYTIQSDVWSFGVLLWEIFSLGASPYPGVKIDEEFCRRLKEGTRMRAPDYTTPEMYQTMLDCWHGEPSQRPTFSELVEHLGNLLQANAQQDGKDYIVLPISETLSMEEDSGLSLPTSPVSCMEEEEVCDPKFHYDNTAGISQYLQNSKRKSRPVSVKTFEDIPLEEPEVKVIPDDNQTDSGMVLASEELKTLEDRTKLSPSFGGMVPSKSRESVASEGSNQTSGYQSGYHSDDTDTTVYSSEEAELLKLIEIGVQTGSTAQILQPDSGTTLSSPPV
# Protocol: Cell culture: Primary human umbilical vein endothelial cells (HUVECs) were routinely cultured in 0.1% gelatin pre-coated flasks or dishes, up to passage 6. […]
# Rabbit primary antibodies for VEGFR-2, p-Tyr1175 were acquired from Cell Signaling Technology (Leiden, The Netherlands). Phospho-VEGFR-2 (Tyr1175) Sandwich ELISA Kit was from Cell Signaling Technology.
# […] Western blot analysis was performed using anti-phospho-VEGFR-2 antibody and total VEGFR-2 was used as a loading control after membrane stripping.
# Inhibition of VEGFR-2-phosphorylation results are expressed as IC50 in microM [μM] versus VEGF-treated HUVECs control without inhibitory compound.
# [4] = tested on: Human neutrophils; assay: Inhibition of ROS production in human neutrophils (isoluminol chemiluminescence); format: cell-based; details: fMLP+TNF-α stimulated PMN; for inhibition at 0.3 µM / pIC50: Homo sapiens, Neutrophil
# Source text: NADPH oxidase, located in the plasma membrane and in the membranes of specific granules, produces superoxide anions from which other ROS, such as hydrogen peroxide, singlet oxygen, hypochlorite, and active hydroxyl radicals. ROS are released into the surrounding medium or into a membrane-enclosed subcellular organelle. One quick and sensitive method for measuring the generation of these metabolites is chemiluminescence (CL). Isoluminol amplified CL technique, is very sensitive and widely used to study respiratory burst (mainly extracellular production of ROS) induced in neutrophils.
# Human neutrophils were isolated from buffy coats which obtained from healthy donors. The isolated neutrophils (3×10^6/ml) were suspended in Hanks' Balanced Salt Solution (HBSS) with Calcium and Magnesium. Neutrophils were pre-incubated with the compounds at different concentrations (0.1, 0.3, 1, 3 and 10 μM) for 30 min at 37° C. The black 96-well cell culture plates were coated with human fibrinogen (0.25 mg/ml in PBS), and incubated overnight at 4° C. or 2 hr at 37° C. Then the plates were washed with endotoxin-free PBS. The neutrophils were incubated (priming) with TNF-α (20 ng/ml) for 10 minutes at 37° C. Thereupon the 75 μl of cell suspension and 75 μl (Isoluminol+HRP solution) were added to each well. The chemiluminescence was recorded (every 25 sec for 250 sec) after fMLP (1 μM) activation using a Multilabel Reader victor3 (Perkin Elmer, USA). Background values, defined as the mean chemiluminescent values of isoluminol diluted in HBSS, were subtracted from all readings (CPS, count per second). The assays were done in duplicate or triplicate.
# [5] = tested on: Human neutrophils; assay: Neutrophil adhesion under static conditions; format: cell-based; details: fMLP-stimulated adhesion to fibrinogen; method: 40 μM and 80 μM, concentration of the value not stated
# Protocol: Human neutrophils obtained from buffy coats of healthy donors were suspended at 3×10^6/ml in adhesion buffer (PBS containing 1 mM CaCl2)/MgCl2 and 10% FCS, pH 7.2). Neutrophils were preincubated for 30 min at 37° C. with 40 μM and 80 μM of the compounds.
# Adhesion assays were performed on 18-well glass slides coated for 18 h at 4° C. with human fibrinogen (20 μg/well in endotoxin-free PBS); 20 μl of cell suspension were added to each well and stimulated for 1 min at 37° C. with 5 μl of fMLP 1 nM final concentration. After washing, adherent cells were fixed in glutaraldehyde 1.5% in PBS and counted by computer-assisted enumeration. Statistical analysis was performed by calculating mean and standard deviation (SD); significance was calculated by unpaired t-test. All statistical analyses were performed using GraphPad Prism 6 (GraphPad Software).
# [6] = biological target: T3, FGF-2 (Homo sapiens, UniProt P09038); assay: FGF-2 induced sprouting of HUVEC, spheroid-based cellular angiogenesis assay; format: cell-based; details: FGF-2 25 ng/mL preincubated with compound, 24 h
# T3 construct: purchased Peprotech 100-18C
# T3 sequence (P09038 134-288): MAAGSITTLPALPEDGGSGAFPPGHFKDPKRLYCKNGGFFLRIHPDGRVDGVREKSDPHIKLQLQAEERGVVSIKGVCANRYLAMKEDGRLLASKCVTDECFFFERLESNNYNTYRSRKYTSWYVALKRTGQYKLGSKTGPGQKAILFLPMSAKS
# Protocol: as §1, §2, §3, §4, §5, §6, §7
# [7] = day 28 of treatment (week 9), 15 mg/kg IV, Captopril 50 mg/kg PO
# [8] = day 28 of treatment (week 9), serum, 15 mg/kg IV, Captopril 50 mg/kg PO
Structure (SMILES),pIC50 [2],pIC50 [3],inhibition at 0.3 µM ([4]; 0.3 μM) [%],Neutrophil adhesion inhibition [5] [%],pIC50 [6],also measured
"C[C@H](CS)C(=O)N1CCC[C@H]1C(=O)O [Captopril, reference compound]",–,–,–,–,–,"Serum CRP ([1]; 28 days of treatment, vs vehicle induced controls): significantly reduced; Mean day 0 blood glucose Concentration (mmol/L) (SD) ([1]; day 0, 15 mg/kg IV, Captopril 50 mg/kg PO): 23.7 (6.9) mmol/L; Mean day 28 blood glucose Concentration (mmol/L) (SD) ([1]; day 28, 15 mg/kg IV, Captopril 50 mg/kg PO): 32.2 (2.3) mmol/L; Blood BUN [1, 7]: 28.5 ± 7.6; Disease Score (kidney, H&E) [1, 7]: 6 ± 1; Eye area (retinal flatmount area covered by vasculature) [1, 7]: 11.8 ± 1.4; Trichrome staining (Kidney fibrosis) [1, 7]: 1.98 ± 0.47; Blood CRP [1, 8]: 4534 ± 821; Blood IL-6 [1, 8]: 125.56 ± 15.75; Blood TGF-beta [1, 8]: 14.55 ± 2.86; Blood TNF-alpha [1, 8]: 415 ± 51.7; Urine albumine creatinine ratio (ALB:CRE) ([1]; day 28 of treatment (week 9), urine pooled per group, 15 mg/kg IV, Captopril 50 mg/kg PO): 24.40"
"CCOC(=O)Cc1cc(O)c(C(=O)Nc2ccccc2-c2nnn[nH]2)cc1O [IIIa-001aTz-E1, ethyl (4-(2-(1H-tetrazol-5-yl)phenylaminocarbonyl)-2,5-dihydroxyphenyl)acetate]",≤ 3.70,6.49,70,91.76,–,–
"CCOC(=O)Cc1cc(O)c(C(=O)Nc2cc(NC(=O)c3cc(O)c(CC(=O)OCC)cc3O)cc(C(=O)OC)c2)cc1O [IIIb-010a-E3, methyl 3,5-bis(4-(ethoxycarbonylmethyl)-2,5-dihydroxybenzamido)benzoate]",–,6.19,–,0,–,–
"O=C(O)c1cc(O)c(CNCc2cc(O)c(C(=O)O)cc2O)cc1O [IIIc-056a, Bis(4-carboxy-2,5-dihydroxyphenylmethyl)amine]",–,–,90.1,35,4.46,–
CCOC(=O)c1cc(O)c(CN(Cc2cc(O)c(C(=O)OCC)cc2O)Cc2cc(O)c(C(=O)OCC)cc2O)cc1O [IIIc-061a-E3],–,6.47,–,10.4,–,–
"O=C(O)c1cc(O)cc(C(=O)Nc2ccccc2S(=O)(=O)O)c1O [IIa-001c, 2,5-dihydroxy-3-(2-sulfophenylaminocarbonyl)benzoic acid]",–,–,72.6,43.53,4.15,–
"O=C(O)c1cccc(NC(=O)c2cc(O)cc(C(=O)O)c2O)c1 [IIa-002a, 3-(3-carboxyphenylaminocarbonyl)-2,5-dihydroxybenzoic acid]",4.72,–,43.3,17.39,3.88,pIC50 [4]: 6.52
"O=C(O)c1cc(NC(=O)c2cc(O)cc(C(=O)O)c2O)cc(C(=O)O)c1 [IIa-015a, 5-(3-carboxy-2,5-dihydroxybenzamido)isophthalic acid]",–,–,–,–,3.90,–
"CCOC(=O)Cc1ccccc1NC(=O)c1cc(O)cc(C(=O)OCC)c1O [IIa-034a-E2, ethyl 3-(2-(ethoxycarbonylmethyl)phenylaminocarbonyl)-2,5-dihydroxybenzoate]",–,–,68.7,11.86,3.79,–
"O=C(O)c1cc(O)c(C(=O)Nc2cccc(S(=O)(=O)O)c2)cc1O [Ia-002c, 2,5-dihydroxy-4-(3-sulfophenylaminocarbonyl)benzoic acid]",4.85,≤ 4.00,38.9,1.87,–,pIC50 [4]: 6.39
"O=C(O)c1ccc(NC(=O)c2cc(O)c(C(=O)O)cc2O)cc1 [Ia-003a, 4-(4-carboxyphenyl-aminocarbonyl)-2,5-dihydroxybenzoic acid]",4.92,–,44.4,39.1,4.47,pIC50 [4]: 6.38
"O=C(O)c1cc(O)c(C(=O)Nc2ccc(S(=O)(=O)O)cc2)cc1O [Ia-003c, 2,5-dihydroxy-4-(4-sulfophenylaminocarbonyl)benzoic acid]",4.46,6.40,–,–,–,–
"O=C(O)Cc1ccc(NC(=O)c2cc(O)c(C(=O)O)cc2O)cc1 [Ia-032a, 4-(4-(carboxymethyl)phenylaminocarbonyl)-2,5-dihydroxybenzoic acid]",–,≤ 4.00,–,–,4.04,–
"CCOC(=O)c1cc(NC(=O)c2cc(OC(C)=O)c(C(=O)OCC)cc2OC(C)=O)cc(NC(=O)c2cc(OC(C)=O)c(C(=O)OCC)cc2OC(C)=O)c1 [Ib-010a-E3-A4, ethyl 3,5-bis(2,5-diacetoxy-4-ethoxycarbonylbenzoylamino)benzoate]",≤ 3.70,6.27,54.9,96,–,pIC50 [4]: 5.83
CCOC(=O)c1cc(O)c(-c2nc3c(C(=O)OC)cccc3[nH]2)cc1O [Id-030a-E2],3.94,6.48,–,43,–,PMN ROS inhibition at 0.3 μM ([4]; 0.3 μM): 0%
